Measurements taken from PubChem BioAssay (NCI).
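48-hour exposure; five concentrations; linearly interpolated endpoints. The concentration for 50% growth inhibition is given as GI50. TGI is the concentration that stops growth completely.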

Each molecule was assayed on SR leukemia (assay: NCI-60 cell line screen, 48 h).

SMILES | TGI [µM]
COC(=O)/C(=N/O)C(C(=O)C=C(C)C)C(=O)C(=O)Nc1nc2ccc([N+](=O)[O-])cc2s1 (stereo unspecified) | > 100
Cc1ccccc1C1=[N+]([O-])c2ccc(Cl)cc2C1=O | 64.2
Cc1[nH]c2ccccc2c1C1Cc2ccccc2N1C(=O)C#Cc1ccc([N+](=O)[O-])cc1 (stereo unspecified) | > 100
Cn1c(=O)nc2n(-c3cc(C(F)(F)F)cc(C(F)(F)F)c3)c3ccccc3nc-2c1=O | > 100

Each molecule was assayed on SNB-75 CNS (assay: NCI-60 cell line screen, 48 h).

SMILES | GI50 [µM] | TGI [µM]
O=C(O)c1cccc(COc2ccc([N+](=O)[O-])cc2Cl)c1 | > 100 | > 100
Nc1ccccc1C(=O)/C=C/c1c(O)ccc2ccccc12 | – | > 100
CCC(C)(O)c1cnc(CC(C)C)c(=O)n1O (stereo unspecified) | – | > 100
CCC1CN2CCc3cc(OC)c(OC)cc3C2CC1CC1c2cc(OC)c(OC)cc2CCN1C(=O)C1CCCN1 (stereo unspecified) | – | > 100
CC(C(=O)c1ccc(Cl)cc1)/C(=N/NC(=O)NN)C(=O)Nc1cccc(C(F)(F)F)c1 (stereo unspecified) | – | > 100
CCOP(=O)(OCC)C(C(=O)OC)C(=O)C(=O)Nc1ccc(Cl)cc1Cl (stereo unspecified) | – | > 100
Cn1cc(-c2csc(-c3cn(CCCCN4CCCCC4)c4ccccc34)n2)c2cccnc21 | 1.51 | 2.99
CC(C)=C1CCC(CN(C)C)C1=O (stereo unspecified) | – | 24.2
COc1ccc(-c2cnnn2-c2nonc2-n2cccc2)cc1 | 0.222 | –
COc1cccc(/C=N/[N-]C(=O)c2ccncc2)c1[O-].COc1cccc(/C=N/[N-]C(=O)c2ccncc2)c1[O-].[O]=[U](=[O])([OH2+])[OH2+] | 12.9 | 62.6
CC(C)(C)c1ccc2c(c1)S(=O)(=O)Nc1ccc(Cl)cc1NS(=O)(=O)c1cc(C(C)(C)C)ccc1OCCOCCOCCO2 | – | 59
COc1ccc(C(=O)c2cc(OC)c(OC)c(OC)c2)cc1OC | – | > 100
O=C1c2ccccc2-c2c1c1ccccc1c(=O)n2CCN1CCNCC1 | 6.26 | 23.2
CCCc1cc(=O)n2c(C(=O)Nc3ccc(Cl)cc3C)c(C(=O)Nc3ccc(F)cc3)sc2n1 | 3.71 | 11.5
N#CC(=Nc1ccccc1N(C(=O)c1ccccc1)C(=O)c1ccccc1)c1ccccc1 | – | > 100
COc1c(C)n(CCO)ccc1=O | – | > 100
COC(=O)C(=O)C(C(C)=O)C(=O)NCc1ccc(OC)c(OC)c1 (stereo unspecified) | – | > 100
Nc1c(-c2ccccc2-c2c(N)[n+]([O-])c3ccccc3[n+]2[O-])[n+]([O-])c2ccccc2[n+]1[O-] | – | > 100
CCOC(=O)NC(=O)c1cn(C(CC)COC(=O)NCCCCCCNC(=O)OCC(CC)n2cc(C(=O)NC(=O)OCC)c(=O)[nH]c2=O)c(=O)[nH]c1=O (stereo unspecified) | – | > 100

SMILES | GI50 [µM] | TGI [µM]
O=C(CC(=O)C1CCOC1=O)C(=O)Nc1cccc(Cl)c1 (stereo unspecified) | – | > 100
CCN1c2ccccc2-c2c3c1cc(C)cc3c1ccccc1[n+]2CC | – | 2.2
Cc1cccc(C2=C/C(=C(\SS/C(C(=O)c3ccc(OCC(=O)O)c(Cl)c3Cl)=C3\C=C(c4cccc(C)c4)SS3)C(=O)c3ccc(OCC(=O)O)c(Cl)c3Cl)SS2)c1 | – | > 83.5
CC1=C(C#N)C(=O)CC(c2ccc(Cl)cc2)N(C)N1 (stereo unspecified) | – | > 100
Nc1nc(-c2ccc(Cl)c([N+](=O)[O-])c2)cs1 | – | 92.7
COc1cc(/C=C2\[C@H]3c4c(c(OC)c(C)c(OC)c4OC)CC(C(=O)N2Cc2ccccc2)N3C)c(OC)c(C)c1OC | – | 82.7
CC1(C)CN=C(NN=C(/C=C/c2ccc(C(F)(F)F)cc2)/C=C/c2ccc(C(F)(F)F)cc2)NC1 | 1.56 | 2.95
CCCC/C(=C\C1=C(C)C(=O)C(OC)=C(OC)C1=O)C(=O)O | 25.2 | > 100
COc1ccc(C(CC(=O)c2ccc3c(c2)OCO3)c2c(O)c3ccccc3oc2=O)cc1OC (stereo unspecified) | – | > 100
COC(=O)/C([Se]c1c(C)cc(C)cc1C)=C(/[Se]c1c(C)cc(C)cc1C)C(=O)OC | – | > 100
NC(=O)C(=O)CC(=O)c1ccccc1NC1=CC(=O)C(=O)c2ccccc21 | – | > 100
Cc1cc2c(c(C(N)=O)c1C)-c1ccccc1C2=O | – | > 100
CCCC(=O)C1=C(O)C(Cc2c(O)c(C)c(O)c(C(=O)CCC)c2O)=C(O)C(C)(C)C1=O | – | > 50
Cc1ccccc1C1=[N+]([O-])c2ccc(Cl)cc2C1=O | – | 40.3
c1coc(-c2c3ccc(=[N+]4CCCCC4)cc-3oc3cc(N4CCCCC4)ccc23)c1 | 0.0903 | 0.588
Cc1[nH]c2ccccc2c1C1Cc2ccccc2N1C(=O)C#Cc1ccc([N+](=O)[O-])cc1 (stereo unspecified) | – | > 100
CCC/C=C/C=C/C1CC(O)C(O)C(=O)C1CO (stereo unspecified) | – | > 100
Cn1c(=O)nc2n(-c3cc(C(F)(F)F)cc(C(F)(F)F)c3)c3ccccc3nc-2c1=O | – | 47.1

What follows are molecules tested on SK-OV-3 ovarian (assay: NCI-60 cell line screen, 48 h).

SMILES | GI50 [nM] | TGI [µM]
O=C(O)c1cccc(COc2ccc([N+](=O)[O-])cc2Cl)c1 | > 100000 | > 100
Nc1ccccc1C(=O)/C=C/c1c(O)ccc2ccccc12 | – | > 100
CCC(C)(O)c1cnc(CC(C)C)c(=O)n1O (stereo unspecified) | – | > 100
CCC1CN2CCc3cc(OC)c(OC)cc3C2CC1CC1c2cc(OC)c(OC)cc2CCN1C(=O)C1CCCN1 (stereo unspecified) | – | 98.5
CC(C(=O)c1ccc(Cl)cc1)/C(=N/NC(=O)NN)C(=O)Nc1cccc(C(F)(F)F)c1 (stereo unspecified) | – | > 100
CCOP(=O)(OCC)C(C(=O)OC)C(=O)C(=O)Nc1ccc(Cl)cc1Cl (stereo unspecified) | – | > 100
Cn1cc(-c2csc(-c3cn(CCCCN4CCCCC4)c4ccccc34)n2)c2cccnc21 | 1770 | 3.21
COc1ccc(-c2cnnn2-c2nonc2-n2cccc2)cc1 | 319 | 4.28
COc1cccc(/C=N/[N-]C(=O)c2ccncc2)c1[O-].COc1cccc(/C=N/[N-]C(=O)c2ccncc2)c1[O-].[O]=[U](=[O])([OH2+])[OH2+] | 12200 | 73.2
CC(C)(C)c1ccc2c(c1)S(=O)(=O)Nc1ccc(Cl)cc1NS(=O)(=O)c1cc(C(C)(C)C)ccc1OCCOCCOCCO2 | – | 86.3
O=C1c2ccccc2-c2c1c1ccccc1c(=O)n2CCN1CCNCC1 | 1730 | 6.26
CCCc1cc(=O)n2c(C(=O)Nc3ccc(Cl)cc3C)c(C(=O)Nc3ccc(F)cc3)sc2n1 | 12700 | 52.8
N#CC(=Nc1ccccc1N(C(=O)c1ccccc1)C(=O)c1ccccc1)c1ccccc1 | – | > 100
COc1c(C)n(CCO)ccc1=O | – | > 100
COC(=O)C(=O)C(C(C)=O)C(=O)NCc1ccc(OC)c(OC)c1 (stereo unspecified) | – | > 100
Nc1c(-c2ccccc2-c2c(N)[n+]([O-])c3ccccc3[n+]2[O-])[n+]([O-])c2ccccc2[n+]1[O-] | – | > 100
CCOC(=O)NC(=O)c1cn(C(CC)COC(=O)NCCCCCCNC(=O)OCC(CC)n2cc(C(=O)NC(=O)OCC)c(=O)[nH]c2=O)c(=O)[nH]c1=O (stereo unspecified) | – | > 100
O=C(CC(=O)C1CCOC1=O)C(=O)Nc1cccc(Cl)c1 (stereo unspecified) | – | > 100
CCN1c2ccccc2-c2c3c1cc(C)cc3c1ccccc1[n+]2CC | – | 5.68

SMILES | GI50 [nM] | TGI [µM]
Cc1cccc(C2=C/C(=C(\SS/C(C(=O)c3ccc(OCC(=O)O)c(Cl)c3Cl)=C3\C=C(c4cccc(C)c4)SS3)C(=O)c3ccc(OCC(=O)O)c(Cl)c3Cl)SS2)c1 | – | > 100
CC(=O)N1CCN(c2ccc(OCC3COC(Cn4ccnc4)(c4ccc(Cl)cc4Cl)O3)cc2)CC1 (stereo unspecified) | – | > 100
O=C(Cc1nc2c3c(ccc2[nH]c1=O)C(=O)c1ccccc1C3=O)C(=O)Nc1ccccc1[N+](=O)[O-] | – | > 100
CC1=C(C#N)C(=O)CC(c2ccc(Cl)cc2)N(C)N1 (stereo unspecified) | – | > 100
Nc1nc(-c2ccc(Cl)c([N+](=O)[O-])c2)cs1 | – | > 100
COc1cc(/C=C2\[C@H]3c4c(c(OC)c(C)c(OC)c4OC)CC(C(=O)N2Cc2ccccc2)N3C)c(OC)c(C)c1OC | – | 92
CC1(C)CN=C(NN=C(/C=C/c2ccc(C(F)(F)F)cc2)/C=C/c2ccc(C(F)(F)F)cc2)NC1 | 1770 | 3.16
CCCC/C(=C\C1=C(C)C(=O)C(OC)=C(OC)C1=O)C(=O)O | > 100000 | > 100
COc1ccc(C(CC(=O)c2ccc3c(c2)OCO3)c2c(O)c3ccccc3oc2=O)cc1OC (stereo unspecified) | – | > 100
COC(=O)/C([Se]c1c(C)cc(C)cc1C)=C(/[Se]c1c(C)cc(C)cc1C)C(=O)OC | – | > 100
NC(=O)C(=O)CC(=O)c1ccccc1NC1=CC(=O)C(=O)c2ccccc21 | – | > 100
Cc1cc2c(c(C(N)=O)c1C)-c1ccccc1C2=O | – | > 100
CCCC(=O)C1=C(O)C(Cc2c(O)c(C)c(O)c(C(=O)CCC)c2O)=C(O)C(C)(C)C1=O | – | > 50
COC(=O)/C(=N/O)C(C(=O)C=C(C)C)C(=O)C(=O)Nc1nc2ccc([N+](=O)[O-])cc2s1 (stereo unspecified) | – | 63
Cc1ccccc1C1=[N+]([O-])c2ccc(Cl)cc2C1=O | – | 52.6
c1coc(-c2c3ccc(=[N+]4CCCCC4)cc-3oc3cc(N4CCCCC4)ccc23)c1 | 246 | 0.819
Cc1[nH]c2ccccc2c1C1Cc2ccccc2N1C(=O)C#Cc1ccc([N+](=O)[O-])cc1 (stereo unspecified) | – | > 100
CCC/C=C/C=C/C1CC(O)C(O)C(=O)C1CO (stereo unspecified) | – | > 100
CCOC(=O)NC(=O)c1cn(C2CCCCC2)c(=O)[nH]c1=O | – | > 100
